From patent publication US10206986B2, “Annexin II variant compositions and methods” (REGENTS OF THE UNIVERSITY OF MINNESOTA, priority 2013, dated 2019)

What was measured:
breast tumor = experiment: Breast-tumor-bearing mice vaccinated intraperitoneally, tumor growth and survival; format: in vivo, BALB/c mice; conditions: 10 consecutive days intraperitoneally; for survival of tumor bearing mice: breast tumor bearing BALB/c mice, compared to saline or scrambled control, FIG. 5
Experimental: (§1) Next, we investigated the use of the A2OVA in vivo. A2OVA peptide (SEQ ID NO:32) was given to non-tumor bearing mice as described in FIG. 4A to see if they would elicit an OVA specific T cell response. […] To determine if the 35 amino acid annexin II fragment can extend survival in tumor bearing animals in an antigen non-specific manner, we used breast tumor bearing BALB/c mice, which lack the MHC haplotype to present SIINFEKL. Mice were treated with A2OVA peptide as summarized in FIG. 5A and followed for survival.

hTLR2 = biological target: T1, hTLR2 (Homo sapiens, UniProt O60603); experiment: TLR2-transfected HEK 293 Blue cells, secreted alkaline phosphatase (NF-κB activity); format: cell-based; conditions: 48 hours, FIGS. 3, 6, 7
T1 construct: host or cells: HEK 293 Blue Cells
Description: (§2) To test if the 35 amino acid N-terminus of annexin II, which distinguishes annexin II from other annexins, contains adjuvant activity, we pulsed bone marrow-derived dendritic cells (BMDC) with gp100+/−A2OVA, fusion peptide containing this 35 amino acid fragment. […] We then tested whether this fusion peptide enhanced adjuvant activity over that of addition of OVA and full length annexin II protein. BMDC were pulsed with A2OVA and we measured the OVA-specific OT-1 CD8 T cell response. […] To further investigate the ability to derive a novel single antigen fusion peptide, we constructed OVA fusion peptides in which an OVA peptide (SEQ ID NO:9) was fused to either an annexin II N-terminal fragment or a scrambled 35 amino acid peptide to produce SEQ ID NO:30 and SEQ ID NO:29, respectively. Peptides were pulsed on TLR2 transfected cells and alkaline phosphatase activity was used to determine NF-κB activity (FIG. 3).
HEK 293 Blue Cells (Invivogen, San Diego, Calif.) stably transfected with hTLR2 were pulsed with annexin II-OVA fusion protein (A2OVA, SEQ ID NO:32) at equal concentration as annexin II monomer (A2 Peptide, SEQ ID NO:28). Scrambled annexin II N-terminus polypeptide (SEQ ID NO:29, Scrambled) and an annexin II fragment (SEQ ID NO:30, Minus p11) were used as controls. Cells were incubated for 48 hours. Following incubation, supernatant was added to Quanti-Blue (Invivogen, San Diego, Calif.) for secreted alkaline phosphatase detection.
(§3) TLR2-transfected HEK 293 Blue Cells and TLR4-transfected HEK 293 Blue Cells (Invivogen, San Diego, Calif.) were pulsed with the N-terminal 15 amino acid annexin II fragment peptide (15aa Peptide, SEQ ID NO:5) at different concentrations. Cells were incubated for 48 hours. Following incubation, supernatant was added to Quanti-Blue (Invivogen, San Diego, Calif.) for secreted alkaline phosphatase detection.
TLR2-transfected HEK 293 Blue Cells and TLR4-transfected HEK 293 Blue Cells (Invivogen, San Diego, Calif.) were pulsed with the N-terminal 15 amino acid annexin II fragment peptide (15aa Peptide, SEQ ID NO:5) or one of the annexin II variants shown in Table 1. Cells were incubated for 48 hours. Following incubation, supernatant was added to Quanti-Blue (Invivogen, San Diego, Calif.) for secreted alkaline phosphatase detection.

[1] = tested on: bone marrow derived dendritic cells; experiment: BMDCs (wild-type, TLR2-/-, TLR4-/-, MyD88-/-) pulsed with peptide, CD80/CD86 by flow cytometry; format: cell-based, mice; conditions: 50 μg peptide, 48 hours, TLR2, TLR4 and MyD88 knockout BMDCs, CD11c+MHCII+ gate; for CD80 co-stimulatory molecule expression (MFI): FIG. 11; for CD86 co-stimulatory molecule expression (MFI): FIG. 12
Experimental: To further characterize the activity of the A-6 variant (SEQ ID NO:17), BMDCs from wild-type, TLR2 knockout, TLR4 knockout, and MyD88 knockout mice were pulsed with the peptide and analyzed for co-stimulatory molecules CD80 (FIG. 11) and CD86 (FIG. 12).
BDMCs (wild-type, TLR2^−/−, TLR4^−/−, and MyD88^−/−) were cultured with 20 ng/mL GM-CSF for six days, then pulsed with 50 ng Pam3CSK4, 50 ng LPS, 50 μg of the N-terminal 15 amino acid annexin II fragment peptide (SEQ ID NO:5, 15aa A2p), or 50 μg of annexin II variant A-6 (SEQ ID NO:17, 15aa A2p6 AL). After 48 hours, cells were stained for CD11c, MHC II, CD80, and CD86 and analyzed by flow cytometry. MFI shown is from a live cell, CD11c^+MHCII^+ gate.

TLR4 = biological target: T2, TLR4 (Homo sapiens, UniProt O00206); experiment: TLR4-transfected HEK 293 Blue cells, secreted alkaline phosphatase (NF-κB activity); format: cell-based; conditions: 48 hours, FIGS. 6, 7
T2 construct: host or cells: HEK 293 Blue Cells
Description: To better characterize the 35 amino acid N-terminus as an adjuvant, we serially removed five amino acids from the C-terminus end of the N-terminal fragment to produce annexin II variants SEQ ID NO:2, SEQ ID NO:3, SEQ ID NO:4, SEQ ID NO:5, and SEQ ID NO:6. We tested the resulting peptides for NF-κB activity. […] To test the ability of the 15 amino acid annexin II fragment (SEQ ID NO:5) to stimulate an immune response, and to determine whether its ability to do so is mediated through TLR2, wild-type and TLR-2 knockout mice were given OVA±annexin II or OVA±the 15 amino acid N-terminal annexin II fragment (SEQ ID NO:5).
as §3
TLR2-transfected HEK 293 Blue Cells and TLR4-transfected HEK 293 Blue Cells (Invivogen, San Diego, Calif.) were pulsed with the N-terminal 15 amino acid annexin II fragment peptide (15aa Peptide, SEQ ID NO:5) or one of the annexin II variants shown in Table 1. Cells were incubated for 48 hours. […]

[2] = tested on: OVA specific CD8+ T cell response; experiment: Vaccination of BL/6 mice, CD8+SIINFEKL+ expansion in whole blood on Day 8; format: in vivo; conditions: four consecutive days, hind leg
Experimental: as §1
BL/6 mice also were vaccinated for four consecutive days in the hind leg with ovalbumin (OVA), ovalbumin+ and 50 μg of the N-terminal 15 amino acid annexin II fragment peptide (SEQ ID NO:5, 15aa), or ovalbumin+50 μg the annexin II variant A-6 (Table 1, SEQ ID NO:17, 15aaP6). On Day 8, mice were bled and whole blood was analyzed for CD8^+SIINFEKL^+ expansion.

[3] = tested on: bone marrow derived dendritic cells; experiment: BMDCs (wild-type, TLR4-/-, MyD88-/-) pulsed with peptide, TNF in supernatant by bead array; format: cell-based, mice; conditions: 50 μg peptide, 48 hours, TLR4 knockout and MyD88 knockout BMDCs, FIG. 10
Experimental: To determine the 15 amino acid N-terminal annexin II fragment's activity on dendritic cells, BMDCs were derived for wild-type, TLR4 knockout, and MyD88 knockout mice. The various BMDCs and pulsed with the 15 amino acid N-terminal annexin II fragment (SEQ ID NO:5).
BMDCs (wild-type, TLR4^−/−, and MyD88^−/−) were cultured with 20 ng/mL GM-CSF for six days, then pulsed with 50 ng Pam3CSK4, 50 ng LPS, or 50 μg of the N-terminal 15 amino acid annexin II fragment peptide (SEQ ID NO:5, A2-15aa). After 48 hours, cell culture supernatant was assayed for TNF by bead array.

[4] = tested on: OVA-specific OT-1 CD8 T cell response; experiment: BMDCs pulsed with OVA peptide/fusion, co-cultured with OT-I CD8+ T cells, IFN-γ by bead array; format: cell-based, mice; conditions: BMDC pulsed with A2OVA versus A2 monomer + OVA as separate agents; FIG. 2
Description: as §2
BMDCs were pulsed with OVA248-274 (SEQ ID NO:31), annexin II (A2 monomer, SEQ ID NO:28), a combination of OVA248-274 and annexin II (A2 monomer+OVA), or annexin II-OVA fusion protein (A2OVA, SEQ ID NO:32), and incubated for 24 hours. Purified OT-I CD8^+ T cells were added and co-cultured for an additional 48 hours. IFN-γ in the tissue culture supernatant was quantified by bead array.

[5] = tested on: gp100-specific CD8 T cell response; experiment: BMDCs pulsed with hgp100 25-33 plus peptide, co-cultured with Pmel CD8+ T cells, IFN-γ by bead array; format: cell-based, C57BL/6 mice; conditions: BMDC pulsed with gp100 +/- A2OVA; equal concentration and equal molecular ratio compared to full-length annexin II; FIG. 1
Description: as §2
Bone marrow derived dendritic cells (BMDCs) were differentiated from C57BL/6 mice and pulsed with hgp10025-33 (SEQ ID NO: 27) with annexin II-OVA fusion protein (SEQ ID NO:32) at equal concentration (*) or equal molecular ratio (**) as A2 monomer (SEQ ID NO:28) and incubated for 24 hours. Annexin A2 monomer was used as a positive control. […] IFN-γ in the tissue culture supernatant was quantified by bead array.

T1 sequence (O60603 21-784): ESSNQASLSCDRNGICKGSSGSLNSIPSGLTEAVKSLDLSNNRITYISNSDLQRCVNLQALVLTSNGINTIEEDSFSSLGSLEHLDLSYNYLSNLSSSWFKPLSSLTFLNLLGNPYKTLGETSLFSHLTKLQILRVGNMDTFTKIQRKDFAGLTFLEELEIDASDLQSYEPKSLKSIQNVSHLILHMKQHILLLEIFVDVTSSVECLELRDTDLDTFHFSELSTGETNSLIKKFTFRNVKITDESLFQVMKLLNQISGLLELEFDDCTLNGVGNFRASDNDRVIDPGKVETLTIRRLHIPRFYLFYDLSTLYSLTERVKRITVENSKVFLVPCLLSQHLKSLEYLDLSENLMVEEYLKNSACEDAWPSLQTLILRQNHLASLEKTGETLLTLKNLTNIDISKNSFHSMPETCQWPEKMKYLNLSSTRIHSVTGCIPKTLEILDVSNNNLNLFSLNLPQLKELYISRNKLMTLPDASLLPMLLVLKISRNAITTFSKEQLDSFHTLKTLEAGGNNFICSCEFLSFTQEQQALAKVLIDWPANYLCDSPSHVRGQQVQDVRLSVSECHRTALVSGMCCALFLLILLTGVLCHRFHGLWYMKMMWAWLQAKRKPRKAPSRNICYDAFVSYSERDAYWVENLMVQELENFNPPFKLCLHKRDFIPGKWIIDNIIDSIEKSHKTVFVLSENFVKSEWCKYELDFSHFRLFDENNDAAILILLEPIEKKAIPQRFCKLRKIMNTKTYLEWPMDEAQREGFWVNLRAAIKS
T2 sequence (O00206 24-839, species assumed): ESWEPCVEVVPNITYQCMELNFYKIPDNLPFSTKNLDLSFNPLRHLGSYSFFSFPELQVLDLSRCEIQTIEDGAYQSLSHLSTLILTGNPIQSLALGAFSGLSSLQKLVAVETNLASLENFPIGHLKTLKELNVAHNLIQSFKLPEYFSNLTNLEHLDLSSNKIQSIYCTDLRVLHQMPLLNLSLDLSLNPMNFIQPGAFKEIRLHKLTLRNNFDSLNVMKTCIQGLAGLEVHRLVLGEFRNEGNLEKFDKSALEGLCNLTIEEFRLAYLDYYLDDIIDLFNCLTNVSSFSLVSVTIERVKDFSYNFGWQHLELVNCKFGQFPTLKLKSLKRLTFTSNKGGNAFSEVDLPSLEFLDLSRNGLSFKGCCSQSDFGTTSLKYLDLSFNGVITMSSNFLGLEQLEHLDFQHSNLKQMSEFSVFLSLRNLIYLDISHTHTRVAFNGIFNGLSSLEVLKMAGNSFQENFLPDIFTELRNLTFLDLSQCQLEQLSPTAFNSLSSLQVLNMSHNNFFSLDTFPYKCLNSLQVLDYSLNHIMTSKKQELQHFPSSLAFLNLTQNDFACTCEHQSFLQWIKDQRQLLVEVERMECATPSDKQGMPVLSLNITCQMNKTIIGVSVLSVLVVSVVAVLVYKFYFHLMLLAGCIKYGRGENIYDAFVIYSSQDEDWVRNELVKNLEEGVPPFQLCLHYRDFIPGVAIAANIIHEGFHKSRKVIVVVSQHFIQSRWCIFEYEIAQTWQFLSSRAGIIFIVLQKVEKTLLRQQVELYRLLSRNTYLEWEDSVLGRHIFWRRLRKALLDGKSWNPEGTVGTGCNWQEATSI
T2 sequence (Q9Y6Y9 17-160 partner limits assumed, species assumed): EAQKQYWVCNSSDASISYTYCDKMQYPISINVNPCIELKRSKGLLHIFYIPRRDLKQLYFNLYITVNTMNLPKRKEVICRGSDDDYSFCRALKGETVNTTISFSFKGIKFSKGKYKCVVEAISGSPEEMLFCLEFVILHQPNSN

Row | Sequence | survival of tumor bearing mice (breast tumor) | NF-κB activity through TLR2 (alkaline phosphatase) (hTLR2) | CD80 co-stimulatory molecule expression (MFI) [1] | CD86 co-stimulatory molecule expression (MFI) [1] | NF-κB activity through TLR4 (alkaline phosphatase) (TLR4) | OVA specific T cell priming in vivo (CD8+SIINFEKL+ expansion) ([2]; BL/6 mice, ovalbumin + 50 μg peptide, Day 8, versus 15aa fragment, FIG. 9) | TNF secretion from BMDCs [3] | tumor size (breast tumor; breast tumor bearing mice, FIG. 5B) | IFNγ response of OVA-specific OT-1 CD8 T cells [4] | antigen specific CD8+ T cell response in vivo (CD8+SIINFEKL+ expansion) ([2]; non-tumor bearing BL/6 mice, Poly:ICLC and 50 μg peptide, Day 8, FIG. 4B) | adjuvant activity in gp100-specific CD8 T cell response (IFN-γ) [5]
1 | DHSTPPSAYGSVKPYTNFDAEEQLESIINFEKLTEWT (DHSTPPSAYGSVKPYTNFDAEEQLESIINFEKLTEWT; annexin II peptide fragment minus p11) [SEQ ID NO:30, reference compound] | conferred no survival benefit | did not elicit a response | – | – | – | – | – | – | – | – | –
2 | STVHEALCKL SLEGD (STVHEALCKLSLEGD; annexin II variant polypeptide) [A-6, alanine for isoleucine substitution at position six of a 15 amino acid annexin II fragment] | – | enhanced TLR2 and TLR4 signaling | increased CD80 and CD86 co-stimulatory molecule expression in a TLR4- and MyD88-dependent manner | increased CD80 and CD86 co-stimulatory molecule expression in a TLR4- and MyD88-dependent manner | enhanced TLR2 and TLR4 signaling | enhanced OVA specific T cell priming in vivo | – | – | – | – | –
3 | STVHEILCKL SLEGD (STVHEILCKLSLEGD; annexin II variant polypeptide) [SEQ ID NO:5, N-terminal 15 amino acid annexin II fragment peptide] | – | activated TLR2 | increased CD80 and CD86 co-stimulatory molecule expression in a TLR4- and MyD88-dependent manner | increased CD80 and CD86 co-stimulatory molecule expression in a TLR4- and MyD88-dependent manner | – | – | mediated induction of TNF secretion and that the activity is MyD88-dependent | – | – | – | –
4 | STVHEILCKLSLEGDHSTPPSAYGSVKPYTNFDAEEQLESIINFEKLTEWT (STVHEILCKLSLEGDHSTPPSAYGSVKPYTNFDAEEQLESIINFEKLTEWT; annexin II-OVA fusion protein (A2OVA) polypeptide) [fusion peptide of the 35 amino acid annexin II N-terminus and OVA peptide] | enhanced survival compared to saline or scrambled control | stimulated NF-κB through TLR2 | – | – | – | – | – | reducing tumor size in vivo | induced an IFNγ response superior to that of A2 monomer (A2m)+OVA added as separate agents | stimulated an antigen specific CD8^+ T cell response in vivo | exerted adjuvant activity
